Data published in patent publication US20020026053A1, “Novel 3-(substituted) -2- indolinones compounds and use thereof as inhibitors of protein kinase activity” (priority 1997, published 2002).

Biological target: T1, EGFR (Homo sapiens, UniProt P00533)
T1 construct: endogenous in cells; host or cells: A431 cells (lysate, captured with SUMO1 anti-EGFR antibody)
Assay: Biochemical EGFR Assay
Design: concentration or dose not given beside the values
Settings: protocol P.167
How it was run: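 EGFR from A431 lysate was captured on anti-EGFR-coated wells and preincubated 30 min with compound (diluted 1:10 in TBS) at room temperature. After ATP/MnCl2 phosphorylation for 5 min, the reaction was stopped with EDTA. Phosphotyrosine was detected by ELISA (anti-phosphotyrosine, peroxidase conjugate, ABTS) at 410 nm.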

T1 sequence (P00533 25-1210): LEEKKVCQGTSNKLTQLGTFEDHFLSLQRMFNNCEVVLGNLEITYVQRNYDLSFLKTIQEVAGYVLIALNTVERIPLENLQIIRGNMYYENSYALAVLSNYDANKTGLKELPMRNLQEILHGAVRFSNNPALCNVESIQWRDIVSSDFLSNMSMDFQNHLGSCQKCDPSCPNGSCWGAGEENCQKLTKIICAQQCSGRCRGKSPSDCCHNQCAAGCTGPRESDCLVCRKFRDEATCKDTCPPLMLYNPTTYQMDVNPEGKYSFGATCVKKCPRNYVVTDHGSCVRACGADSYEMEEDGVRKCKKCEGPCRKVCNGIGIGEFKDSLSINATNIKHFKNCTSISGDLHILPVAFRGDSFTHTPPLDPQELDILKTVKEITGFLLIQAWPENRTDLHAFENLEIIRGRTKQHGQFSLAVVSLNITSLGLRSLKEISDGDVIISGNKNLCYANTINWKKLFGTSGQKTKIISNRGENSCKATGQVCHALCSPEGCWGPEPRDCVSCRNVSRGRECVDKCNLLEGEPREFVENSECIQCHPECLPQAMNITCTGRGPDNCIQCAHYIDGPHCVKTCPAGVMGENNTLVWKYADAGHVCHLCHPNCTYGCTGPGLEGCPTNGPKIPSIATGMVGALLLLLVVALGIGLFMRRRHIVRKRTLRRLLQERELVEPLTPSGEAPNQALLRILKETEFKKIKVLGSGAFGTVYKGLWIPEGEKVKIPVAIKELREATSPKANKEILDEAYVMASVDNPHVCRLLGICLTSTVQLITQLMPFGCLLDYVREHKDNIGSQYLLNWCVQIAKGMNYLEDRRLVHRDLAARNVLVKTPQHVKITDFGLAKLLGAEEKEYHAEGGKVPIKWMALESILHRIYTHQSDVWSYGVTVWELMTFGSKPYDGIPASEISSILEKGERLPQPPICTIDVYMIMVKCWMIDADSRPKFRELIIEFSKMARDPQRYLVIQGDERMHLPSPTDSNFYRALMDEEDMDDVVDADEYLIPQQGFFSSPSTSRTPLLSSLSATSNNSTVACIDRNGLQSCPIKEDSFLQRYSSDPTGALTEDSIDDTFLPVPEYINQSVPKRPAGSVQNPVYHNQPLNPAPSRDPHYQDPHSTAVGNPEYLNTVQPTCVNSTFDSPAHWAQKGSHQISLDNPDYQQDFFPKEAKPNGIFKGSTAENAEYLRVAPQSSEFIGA

Row | SMILES | Biochem EGFR % Inhibition (P.167)
1 | Cc1ccc(Oc2cccc(C=C3C(=O)Nc4c(Br)cc(Br)cc43)c2)cc1 [10738/A02] | 16.7%
2 | O=C1Nc2c(Br)cc(Br)cc2C1=Cc1cccc(Oc2ccc(Cl)c(Cl)c2)c1 [10738/A03] | 40.5%
3 | COc1ccc(C=C2C(=O)Nc3c(Br)cc(Br)cc32)cc1O [10738/A04] | −17.5%
4 | O=C1Nc2c(Br)cc(Br)cc2C1=Cc1cc(O)ccc1[N+](=O)[O-] [10738/A05] | 33.6%
5 | O=C1Nc2c(Br)cc(Br)cc2C1=Cc1cccc(O)c1O [10738/A06] | 54.9%
6 | O=C1Nc2c(Br)cc(Br)cc2C1=Cc1cc(O)cc(O)c1 [10738/A07] | 4.3%
7 | O=C1Nc2c(Br)cc(Br)cc2C1=Cc1ccc(Cl)c(Cl)c1 [10738/A08] | 6.0%
8 | COc1ccccc1C=C1C(=O)Nc2c(Br)cc(Br)cc21 [10738/A09] | 17.0%
9 | CC(C)c1ccc(C=C2C(=O)Nc3c(Br)cc(Br)cc32)cc1 [10738/A10] | −0.9%
10 | CCCOc1ccc(C=C2C(=O)Nc3c(Br)cc(Br)cc32)cc1 [10738/A11] | 4.5%
11 | Cc1ccc(Oc2cccc(C=C3C(=O)Nc4ccc(I)cc43)c2)cc1 [10738/B02] | −24.4%
12 | O=C1Nc2ccc(I)cc2C1=Cc1cccc(Oc2ccc(Cl)c(Cl)c2)c1 [10738/B03] | 19.2%
13 | COc1ccc(C=C2C(=O)Nc3ccc(I)cc32)cc1O [10738/B04] | 51.2%
14 | O=C1Nc2ccc(I)cc2C1=Cc1cc(O)ccc1[N+](=O)[O-] [10738/B05] | 57.6%
15 | O=C1Nc2ccc(I)cc2C1=Cc1cccc(O)c1O [10738/B06] | 22.9%
16 | O=C1Nc2ccc(I)cc2C1=Cc1cc(O)cc(O)c1 [10738/B07] | 28.7%
17 | O=C1Nc2ccc(I)cc2C1=Cc1ccc(Cl)c(Cl)c1 [10738/B08] | 33.9%
18 | COc1ccccc1C=C1C(=O)Nc2ccc(I)cc21 [10738/B09] | 20.9%
19 | CC(C)c1ccc(C=C2C(=O)Nc3ccc(I)cc32)cc1 [10738/B10] | 37.3%
20 | CCCOc1ccc(C=C2C(=O)Nc3ccc(I)cc32)cc1 [10738/B11] | 18.0%
21 | Cc1ccc(Oc2cccc(C=C3C(=O)Nc4ccc(Br)c(C)c43)c2)cc1 [10738/C02] | −30.5%
22 | Cc1c(Br)ccc2c1C(=Cc1cccc(Oc3ccc(Cl)c(Cl)c3)c1)C(=O)N2 [10738/C03] | 8.2%
23 | COc1ccc(C=C2C(=O)Nc3ccc(Br)c(C)c32)cc1O [10738/C04] | 43.7%

Row | SMILES | Biochem EGFR % Inhibition (P.167)
24 | Cc1c(Br)ccc2c1C(=Cc1cc(O)ccc1[N+](=O)[O-])C(=O)N2 [10738/C05] | 18.4%
25 | Cc1c(Br)ccc2c1C(=Cc1cccc(O)c1O)C(=O)N2 [10738/C06] | 28.7%
26 | Cc1c(Br)ccc2c1C(=Cc1cc(O)cc(O)c1)C(=O)N2 [10738/C07] | −19.0%
27 | Cc1c(Br)ccc2c1C(=Cc1ccc(Cl)c(Cl)c1)C(=O)N2 [10738/C08] | −11.9%
28 | COc1ccccc1C=C1C(=O)Nc2ccc(Br)c(C)c21 [10738/C09] | 31.9%
29 | Cc1c(Br)ccc2c1C(=Cc1ccc(C(C)C)cc1)C(=O)N2 [10738/C10] | 5.2%
30 | CCCOc1ccc(C=C2C(=O)Nc3ccc(Br)c(C)c32)cc1 [10738/C11] | −1.1%
31 | CNS(=O)(=O)c1ccc2c(c1)C(=Cc1cccc(Oc3ccc(C)cc3)c1)C(=O)N2 [10738/D02] | 21.4%
32 | CNS(=O)(=O)c1ccc2c(c1)C(=Cc1cccc(Oc3ccc(Cl)c(Cl)c3)c1)C(=O)N2 [10738/D03] | 47.6%
33 | CNS(=O)(=O)c1ccc2c(c1)C(=Cc1ccc(OC)c(O)c1)C(=O)N2 [10738/D04] | 7.4%
34 | CNS(=O)(=O)c1ccc2c(c1)C(=Cc1cc(O)ccc1[N+](=O)[O-])C(=O)N2 [10738/D05] | 4.3%
35 | CNS(=O)(=O)c1ccc2c(c1)C(=Cc1cccc(O)c1O)C(=O)N2 [10738/D06] | 32.4%
36 | CNS(=O)(=O)c1ccc2c(c1)C(=Cc1cc(O)cc(O)c1)C(=O)N2 [10738/D07] | −8.7%
37 | CNS(=O)(=O)c1ccc2c(c1)C(=Cc1ccc(Cl)c(Cl)c1)C(=O)N2 [10738/D08] | 0.6%
38 | CNS(=O)(=O)c1ccc2c(c1)C(=Cc1ccccc1OC)C(=O)N2 [10738/D09] | 12.1%
39 | CNS(=O)(=O)c1ccc2c(c1)C(=Cc1ccc(C(C)C)cc1)C(=O)N2 [10738/D10] | −12.4%
40 | CCCOc1ccc(C=C2C(=O)Nc3ccc(S(=O)(=O)NC)cc32)cc1 [10738/D11] | −13.1%
41 | Cc1ccc(Oc2cccc(C=C3C(=O)Nc4ccc(S(=O)(=O)Nc5ccc(C(F)(F)F)cc5)cc43)c2)cc1 [10738/E02] | 56.1%
42 | O=C1Nc2ccc(S(=O)(=O)Nc3ccc(C(F)(F)F)cc3)cc2C1=Cc1cccc(Oc2ccc(Cl)c(Cl)c2)c1 [10738/E03] | 82.6%
43 | COc1ccc(C=C2C(=O)Nc3ccc(S(=O)(=O)Nc4ccc(C(F)(F)F)cc4)cc32)cc1O [10738/E04] | 13.1%
44 | O=C1Nc2ccc(S(=O)(=O)Nc3ccc(C(F)(F)F)cc3)cc2C1=Cc1cc(O)ccc1[N+](=O)[O-] [10738/E05] | 52.0%
45 | O=C1Nc2ccc(S(=O)(=O)Nc3ccc(C(F)(F)F)cc3)cc2C1=Cc1cccc(O)c1O [10738/E06] | 15.8%
46 | O=C1Nc2ccc(S(=O)(=O)Nc3ccc(C(F)(F)F)cc3)cc2C1=Cc1cc(O)cc(O)c1 [10738/E07] | 57.1%

Row | SMILES | Biochem EGFR % Inhibition (P.167)
47 | O=C1Nc2ccc(S(=O)(=O)Nc3ccc(C(F)(F)F)cc3)cc2C1=Cc1ccc(Cl)c(Cl)c1 [10738/E08] | 43.2%
48 | COc1ccccc1C=C1C(=O)Nc2ccc(S(=O)(=O)Nc3ccc(C(F)(F)F)cc3)cc21 [10738/E09] | 35.3%
49 | CC(C)c1ccc(C=C2C(=O)Nc3ccc(S(=O)(=O)Nc4ccc(C(F)(F)F)cc4)cc32)cc1 [10738/E10] | 34.1%
50 | CCCOc1ccc(C=C2C(=O)Nc3ccc(S(=O)(=O)Nc4ccc(C(F)(F)F)cc4)cc32)cc1 [10738/E11] | 15.8%
51 | Cc1ccc(Oc2cccc(C=C3C(=O)Nc4ccc(S(=O)(=O)N5CCOCC5)cc43)c2)cc1 [10738/F02] | 13.1%
52 | O=C1Nc2ccc(S(=O)(=O)N3CCOCC3)cc2C1=Cc1cccc(Oc2ccc(Cl)c(Cl)c2)c1 [10738/F03] | 45.6%
53 | COc1ccc(C=C2C(=O)Nc3ccc(S(=O)(=O)N4CCOCC4)cc32)cc1O [10738/F04] | −6.5%
54 | O=C1Nc2ccc(S(=O)(=O)N3CCOCC3)cc2C1=Cc1cc(O)ccc1[N+](=O)[O-] [10738/F05] | 51.5%
55 | O=C1Nc2ccc(S(=O)(=O)N3CCOCC3)cc2C1=Cc1cccc(O)c1O [10738/F06] | −19.5%
56 | O=C1Nc2ccc(S(=O)(=O)N3CCOCC3)cc2C1=Cc1cc(O)cc(O)c1 [10738/F07] | 9.1%
57 | O=C1Nc2ccc(S(=O)(=O)N3CCOCC3)cc2C1=Cc1ccc(Cl)c(Cl)c1 [10738/F08] | 15.5%
58 | COc1ccccc1C=C1C(=O)Nc2ccc(S(=O)(=O)N3CCOCC3)cc21 [10738/F09] | 0.1%
59 | CC(C)c1ccc(C=C2C(=O)Nc3ccc(S(=O)(=O)N4CCOCC4)cc32)cc1 [10738/F10] | −4.8%
60 | CCCOc1ccc(C=C2C(=O)Nc3ccc(S(=O)(=O)N4CCOCC4)cc32)cc1 [10738/F11] | −14.8%
61 | Cc1ccc(Oc2cccc(C=C3C(=O)Nc4ccc(CCCl)cc43)c2)cc1 [10738/G02] | 19.9%
62 | O=C1Nc2ccc(CCCl)cc2C1=Cc1cccc(Oc2ccc(Cl)c(Cl)c2)c1 [10738/G03] | 31.9%
63 | COc1ccc(C=C2C(=O)Nc3ccc(CCCl)cc32)cc1O [10738/G04] | 12.1%
64 | O=C1Nc2ccc(CCCl)cc2C1=Cc1cc(O)ccc1[N+](=O)[O-] [10738/G05] | 27.3%
65 | O=C1Nc2ccc(CCCl)cc2C1=Cc1cccc(O)c1O [10738/G06] | −8.2%
66 | O=C1Nc2ccc(CCCl)cc2C1=Cc1cc(O)cc(O)c1 [10738/G07] | −1.9%
67 | O=C1Nc2ccc(CCCl)cc2C1=Cc1ccc(Cl)c(Cl)c1 [10738/G08] | 23.6%
68 | COc1ccccc1C=C1C(=O)Nc2ccc(CCCl)cc21 [10738/G09] | 16.7%
69 | CC(C)c1ccc(C=C2C(=O)Nc3ccc(CCCl)cc32)cc1 [10738/G10] | 26.5%
